Measurements as given in patent publication US9101679B2, “Sterilization method and apparatus” (TS03 Inc., priority 2009, dated 2015).
“Also recorded” adds a separate entry of the source. Read-outs that look alike come from different tables or passages of the source.

Experiments:
[1] = test system: G. stearothermophilus ATCC 7953 spores; test: Sterile efficacy on inoculated lumens, half-cycle of each TSO3 cycle; type: cell-based; conditions: for sterility result in words, gas replacing ozone after hydrogen peroxide injection: all three cycles, gas injected after hydrogen peroxide
Description: The test evaluated the sterile efficacy on inoculated devices. Inoculated wires were inserted in tubing and afterwards in pouches. The pouches were also placed at the top of the loading carriage in the sterilization chamber.
The same loads were used for the three series of tests performed: ozone, oxygen and nitric oxide. The length, diameter, material and type of tubing were different for each cycle and are described in Table 3. The inoculated lumens were placed in a special load representing an average load for the three cycles.
The lumens used to evaluate the sterile efficacy were inoculated according to protocol MCB-09-A07 rev 9. The wire method was used. The wires were inoculated with 10 μL of a G. stearothermophilus ATCC 7953 spores suspension of 1.0×10^6 to 2.5×10^6 UFC/10 μL. The inoculated wires were left to dry overnight at normal room conditions.
Test loads were exposed to a half-cycle of each cycle. For the experiment with oxygen and nitrogen oxide, ozone was replaced by the gas to be tested. A burette was also plugged on the valve system in order to precisely determine the H2O2 injected volume.
The baseline of sterile efficacy on the inoculated lumens used in each cycle was established using only hydrogen peroxide. Cycles using hydrogen peroxide and ozone were performed to compare the efficacy of oxygen and nitrogen oxide to ozone.
The oxygen was injected in the chamber using the same system as that used for ozone. The ozone generator was turned off.
The NO was injected however directly in the chamber from an independent NO cylinder (Praxair). […] By doing so, the gas was forced into the chamber.
All tests were performed outside in order to limit possible dangers from accidental leaks. A NO detector was used. A long tube was plugged into the catalyst converter unit, to allow the NO to be eliminated far from the set-up. A calculation was performed (see below) to determine the number of valve injections necessary to obtain a concentration of 2 mg/L. • Valve volume: 3.3 mL (Volume calculated in R-1937) • NO Density NTP: 1.25 g/L • Sterilisation chamber volume: 125 L • Finale concentration desired: 2 mg/L • NO Pressure: 3 psig • Corrected volume: 3300×((14.7+3)/14.7)=3973.2 μL • Mass to be injected: 0.002 g/L×125 L=0.25 gno • Masse injected by each injection: 1.25 g/L×0.003974 L=4.9665×10^−3 g/injection • Number of injections required: 0.25 gno/4.9665×10^−3 g/injection=50 injections

spores [2] = test: Sterilization by evaporated hydrogen peroxide solution alone or followed by ozone; type: cell-based
Description: Indeed the evaporated hydrogen peroxide solution injected into the chamber is not sufficient to achieve sterilization, although a 4 log reduction in spores has been observed. […] Such complete sterilization could not be achieved using only the injection of evaporated hydrogen peroxide solution, independent of the amount of hydrogen peroxide solution used and the concentration of the solution. Moreover, high concentrations of hydrogen peroxide reduce compatibility with some instruments. […] In fact the dwelling time after hydrogen peroxide injection appears to have no effect on sterilization efficacy.

spores [3] = conditions: 3.4 mL per pulse; half-cycle of Cycle 1; Teflon 1 mm x 80 cm
Method: In order to inject a high volume at once, a valve separated by Teflon tubing was used instead of the normally used microvalve (TSO3 #: AM-213-001). The tubing length was determined by the volume to be injected. Since the volume contained in the valve is significant, two sizes of valves were used. The first type (TSO3 #: CM-900-157) with an orifice of 0.062″, was used for a volume up to 1.5 mL. The second Neptune type, with an orifice of 0.156″, (TSO3 #: CM-900-156), was used for a volume up to 3.5 mL. The larger valve size also helps to push the large liquid volume into the chamber. For the 35 μL volume, a Burket 7616 micropump (TSO3 #: CM-113-001) was used. For the 23 μL volume, a larger, specially-made block was used.
Two cycles were used for this experiment. To test the sterility, Cycle 1 (half-cycle) was used, where the injection step of the conditioning phase was modified with a variation in volume and pulse for each attempt, as previously described. As for the condensation effect, Cycle 3, consisting of four phases, was utilized. This cycle was chosen due to the fact that a greater quantity of hydrogen peroxide was injected for the cycle, making it the worst case scenario. […] After exposure to a half-cycle of Cycle 1, the sterility of each lumen was determined according to MCB-09-A04 rev. 7 by quantitative recovery using the ultrasound technique followed by filtration. […]

[4] = test system: spores of G. stearothermophilus; test: Estimate of spores inactivated by NO / NO2 alone; type: cell-based
Method: In this experiment, the amount of NO injected was 2 mg/L. Considering that all NO molecules were transformed in NO2, a D-value of 1.9 minutes for a concentration of 2 mg/L of NO2, only 2.5 log of spores would have been inactivated by the NO2. This less than the 6 log present on the inoculated devices. In reality, the conversion rate of NO in NO2 is probably not 100%, and the D-value is more than 1.9 minutes. Thus the number of spores inactivated by NO only is probably more around 1 log.

[5] = test system: spores of G. stearothermophilus; conditions: cited from earlier work

OO [H2O2, hydrogen peroxide]
Sterile lumens Cycle 1 ([1]; half-cycle of Cycle 1, Teflon lumen 1 mm x 80 cm, O3 or O2 2 mg/L, NO 2 mg/L): 50%
Sterile lumens Cycle 2 ([1]; half-cycle of Cycle 2, stainless steel lumen 1 mm x 50 cm, O3 or O2 10 mg/L, NO 2 mg/L): 12.5%
Sterile lumens Cycle 3 ([1]; half-cycle of Cycle 3, Teflon lumen 1 mm x 110 cm, O3 or O2 3 mg/L, NO 2 mg/L): 16%
reduction in spores (spores [2]; evaporated hydrogen peroxide solution only, no ozone): 4 log
spore count (spores [3]): zero

[O]N=O [NO2, nitrogen dioxide]
spores inactivated by the NO2 ([4]; assuming all NO (2 mg/L) transformed into NO2 and a D-value of 1.9 minutes): 2.5 log
D-value ([5]; 3 mg/L): approximately 1.9 minutes
D-value ([5]; 5.12 mg/L NO2): 0.3 min

O=O [oxygen]
sterility result in words, gas replacing ozone after hydrogen peroxide injection [1]: ineffective to replace ozone; also recorded: Sterility was not achieved in two of the three cycles

O=[O+][O-] [ozone]
sterilization result in words (spores [2]; 1-10 mg of ozone per liter of sterilization atmosphere added after evaporated hydrogen peroxide, SAL 10^-6): full and complete sterilization

Nitrogen monoxide
sterility result in words, gas replacing ozone after hydrogen peroxide injection [1]: complete sterility in all three cycles
spores inactivated by NO only ([4]; 2 mg/L NO, conversion to NO2 probably not 100%): around 1 log
